Columns and labels:
[1] = tested on: WT CYP121A1 heme thiolate-CO complex
CYP121A1 dimer = settings: cited from earlier work
Mtb = settings: cited from earlier work

O=C1N[C@@H](Cc2ccc(O)cc2)C(=O)N[C@H]1Cc1ccc(O)cc1 [cYY, cyclo-L-Tyr-L-Tyr]
change of heme thiolate-CO complex stability with bound substrate [1]: little change

Clc1ccccc1C(c1ccccc1)(c1ccccc1)n1ccnc1 [clotrimazole]
effect on dimerization of the enzyme (CYP121A1 dimer): disrupts dimerization of the enzyme

Clc1ccc(COC(Cn2ccnc2)c2ccc(Cl)cc2Cl)cc1 (centres unmarked) [econazole]
effect on dimerization of the enzyme (CYP121A1 dimer): disrupts dimerization of the enzyme

CC(=O)N1CCN(c2ccc(OCC3COC(Cn4ccnc4)(c4ccc(Cl)cc4Cl)O3)cc2)CC1 (centres unmarked) [ketoconazole]
effect of ligand on thermal stability (WT CYP121A1): modest increase in the stability | inhibition of Mtb growth (Mtb): does not significantly inhibit Mtb growth
